Source: patent US5585376A, “1,5-benzodiazepine derivatives having CCK and/or gastrin antagonistic activity” (Glaxo Wellcome Inc., priority 1993, dated 1996)

test system: not listed separately; assay: untoward effects in the gastrin fistula rat; format: in vivo; conditions: 0.3 and 1 mg/kg iv
Excerpt: (§1) The compounds of the invention are essential non-toxic a theraapeutically active doses.

Question: With O=C(Nc1ccc(F)cc1)NC1C(=O)N(CC(=O)N2CCCC2)c2ccccc2N(C2CCCCC2)C1=O (single isomer, unassigned) [Example 1 (isomer 1), 1-[1-Cyclohexyl-2,4-dioxo-5-(2-oxo-2-pyrrolidin-1-yl-ethyl)-2,3,4,5-tetrahydro-1H-benzo[b][1.4]diazepin-3-yl]-3-(4-fluoro-phenyl)urea] as the compound, how does the untoward effects read?
Answer: The untoward effects was “no untoward effects were observed”.

target: T1, human CCK-B receptor (Homo sapiens, UniProt P32239); assay: CCK-B receptor binding, transfected HeLa cell membranes, [125I]BH-sCCK-8; conditions: HeLa cell membranes stably transfected with human CCK-B receptor; 30 pM [125I]BH-sCCK-8
T1 construct: expressed in transfected cells; host or cells: HeLa cells (membranes), stably transfected
T1 sequence (P32239 1-447): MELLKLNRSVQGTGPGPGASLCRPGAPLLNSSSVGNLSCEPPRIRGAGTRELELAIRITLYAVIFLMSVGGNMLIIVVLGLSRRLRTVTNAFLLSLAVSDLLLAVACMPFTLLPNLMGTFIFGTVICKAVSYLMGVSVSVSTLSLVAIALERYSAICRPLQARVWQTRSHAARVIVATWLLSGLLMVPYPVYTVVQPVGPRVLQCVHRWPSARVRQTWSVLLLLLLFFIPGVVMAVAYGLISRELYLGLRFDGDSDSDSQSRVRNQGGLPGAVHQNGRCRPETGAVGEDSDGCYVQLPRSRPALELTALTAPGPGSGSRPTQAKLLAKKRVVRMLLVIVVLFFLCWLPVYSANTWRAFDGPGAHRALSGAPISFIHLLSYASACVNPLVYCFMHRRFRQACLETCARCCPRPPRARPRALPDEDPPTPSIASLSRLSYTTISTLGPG
Method: Alternatively the binding affinity of compounds of the invention for CCK-A and CCK-B receptors may be determined using HeLa cell membranes that are transfected with the human CCK-B receptor or, COS-M6 cell membranes that are transiently transfected with the human CCK-A receptor.
CCK-B receptor binding studies were carried out using HeLa cell membranes which had been stabily transfected with the human CCK-B receptor cloned from temporal cortex cDNA library.
The transfected HeLa cell membranes were incubated with 30 pM [^125 ]BH-sCCK-8 in the presence of various concentrations of the test compound (1 pM to 1 μM). All experiments were performed in an assay volume of 250 μl. Membranes were harvested onto GF/C glass fibre filter paper (Whatman, UK) by rapid filtration using a Cell Harvester (Brandel model M-24R) and washed three times with HEPES Wash buffer chilled to 4° C. The radioactivity trapped on individual filter discs was counted over 60 seconds using a gamma counter (Mini Gamma counter, LKB, Wallac, Finland) at a counting efficiency of 77%. A control experiment was also carded out in the absence of a test compound.
Analysis of the data was performed by computer-assisted non-linear regression (ALLFIT programmes DeLean et al., 1978;). IC50 values for the test compounds were convened to Ki values using the Cheng & Prussof equation (Ki =IC50 /(1+[L]/KD)) (Cheng and Prussof, 1973).

Question: Which Ki does the source give for O=C(Nc1ccc(F)cc1)NC1C(=O)N(CC(=O)N2CCCC2)c2ccccc2N(C2CCCCC2)C1=O (single isomer, unassigned) [1 (isomer 2), 1-[1-Cyclohexyl-2,4-dioxo-5-(2-oxo-2-pyrrolidin-1-yl-ethyl)-2,3,4,5-tetrahydro-1H-benzo[b][1.4]diazepin-3-yl]-3-(4-fluoro-phenyl)urea] here?
Answer: Its Ki is 7.94 nM.

Question: For O=C(Nc1ccc(F)cc1)NC1C(=O)N(CC(=O)N2CCCC2)c2ccccc2N(C2CCCCC2)C1=O (single isomer, unassigned) [Example 1 (isomer 1), 1-[1-Cyclohexyl-2,4-dioxo-5-(2-oxo-2-pyrrolidin-1-yl-ethyl)-2,3,4,5-tetrahydro-1H-benzo[b][1.4]diazepin-3-yl]-3-(4-fluoro-phenyl)urea], which Ki is on record?
Answer: The Ki was 3.16 nM.

Question: For O=C(Nc1ccc(F)cc1)NC1C(=O)N(CC(=O)N2CCCC2)c2ccccc2N(C2CCCCC2)C1=O (stereo not drawn) [Example 1, 1-[1-Cyclohexyl-2,4-dioxo-5-(2-oxo-2-pyrrolidin-1-yl-ethyl)-2,3,4,5-tetrahydro-1H-benzo[b][1.4]diazepin-3-yl]-3-(4-fluoro-phenyl)urea], which Ki is on record?
Answer: The Ki was 3.16 nM.

Question: With O=C(Nc1cccc(C(=O)O)c1)NC1C(=O)N(CC(=O)N2CCCC2)c2ccccc2N(C2CCCCC2)C1=O (stereo not drawn) [Example 2, 3-{3-[1-Cyclohexyl-2,4-dioxo-5-(2-oxo-2-pyrrolidin-1-yl-ethyl)-2,3,4,5-tetrahydro-1H-benzo[b][1.4]diazepin-3-yl]-ureido}-benzoic acid] as the compound, how does the Ki read?
Answer: Its Ki is 2 nM.

Question: With O=C(O)Cc1cccc(NC(=O)NC2C(=O)N(CC(=O)N3CCCC3)c3ccccc3N(c3ccccc3F)C2=O)c1 (stereo not drawn) [Example 3, (3-{3-[1-(2-Fluoro-phenyl)-2,4-dioxo-5-(2-oxo-2-pyrrolidin-1-yl-ethyl)-2,3,4,5-tetrahydro-1H-benzo[b][1,4]diazepin-3-yl]-ureido}-phenyl)-acetic acid] as the compound, how does the Ki read?
Answer: The Ki was 3.98 nM.

Question: Which Ki does the source give for CC1(C)CCCN(C(=O)CN2C(=O)C(NC(=O)Nc3cccc(C(=O)O)c3)C(=O)N(c3ccccc3F)c3ccccc32)C1 (stereo not drawn) [Example 4, 3-{3-[1-[2-(3,3-Dimethyl-piperidin-1-yl)-2-oxo-ethyl]-5-(2-fluoro-phenyl)-2,4-dioxo-2,3,4,5-tetrahydro-1H-benzo[b][1,4]diazepin-3-yl]-ureido}-benzoic acid] here?
Answer: The Ki was 1.58 nM.

Question: Which Ki does the source give for O=C(Nc1cccc(F)c1)NC1C(=O)N(CC(=O)N2CCCC2)c2ccccc2N(C2CCCCC2)C1=O (stereo not drawn) [Example 7] here?
Answer: Its Ki is 5.01 nM.

Question: Which Ki does the source give for O=C(Nc1cccc([N+](=O)[O-])c1)NC1C(=O)N(CC(=O)N2CCCC2)c2ccccc2N(C2CCCCC2)C1=O (stereo not drawn) [Example 8] here?
Answer: The Ki was 2.51 nM.

Question: With O=C(Nc1ccccc1)NC1C(=O)N(CC(=O)N2CCCC2)c2ccccc2N(C2CCCCC2)C1=O (stereo not drawn) [Example 10] as the compound, how does the Ki read?
Answer: The Ki was 3.98 nM.

Question: For CN(C)c1cccc(NC(=O)NC2C(=O)N(CC(=O)N3CCCC3)c3ccccc3N(C3CCCCC3)C2=O)c1 (stereo not drawn) [Example 12], which Ki is on record?
Answer: The Ki was 1 nM.

Question: For O=C(Nc1cccc(-c2nn[nH]n2)c1)NC1C(=O)N(CC(=O)N2CCCC2)c2ccccc2N(c2ccccc2)C1=O (stereo not drawn) [Example 14], which Ki is on record?
Answer: Its Ki is 3.16 nM.

Question: With Cc1cccc(NC(=O)NC2C(=O)N(CC(=O)N3CCCC3)c3ccccc3N(c3ccccc3)C2=O)c1 (stereo not drawn) [Example 15] as the compound, how does the Ki read?
Answer: Its Ki is 1.58 nM.

Question: With CC1(C)CCCN(C(=O)CN2C(=O)C(NC(=O)Nc3ccc(F)cc3)C(=O)N(c3ccccc3F)c3ccccc32)C1 (stereo not drawn) [Example 20] as the compound, how does the Ki read?
Answer: Its Ki is 2 nM.

test system: gastric acid secretion; assay: gastric acid secretion in the gastrin fistula rat; format: in vivo; conditions: 0.3 and 1 mg/kg iv
Excerpt: as §1

Question: Which gastric acid secretion does the source give for O=C(Nc1ccc(F)cc1)NC1C(=O)N(CC(=O)N2CCCC2)c2ccccc2N(C2CCCCC2)C1=O (single isomer, unassigned) [Example 1 (isomer 1), 1-[1-Cyclohexyl-2,4-dioxo-5-(2-oxo-2-pyrrolidin-1-yl-ethyl)-2,3,4,5-tetrahydro-1H-benzo[b][1.4]diazepin-3-yl]-3-(4-fluoro-phenyl)urea] here?
Answer: The gastric acid secretion was “significally inhibited”.
